Test results taken from patent US7949164B2, “Lung cancer diagnosis using magnetic resonance imaging data obtained at three time points” (Yeda Research & Development Co. Ltd., priority 2005, dated 2011).

Columns and labels:
[1] = listed under H460 NSCLC tumor tissue; Furman-Haran, 1997; cited from earlier work
[2] = Contrast agent pharmacokinetics in plasma: bi-exponential fit of DCE-MRI signal enhancement curves (heart ventricle / great vessels) after bolus injection; format: in vivo; settings: nude rats, bolus into tail vein, dose 0.1 mmol/kg wt
Experimental: Enhancement, E(t), is defined as the difference in signal intensities before and after contrast material injection: E(t)=[I(t)−I(t0)]/I(t0) Eq. (1) where I designates signal intensity. Assuming similar pharmacokinetics for all patients with normal kidney function, Cp(t) in ml contrast agent per liter blood may be given by the equation: Cp(t)=D(a1e^−m1^t+a2e^−m2^t) D=dose in ml/kg Eq. (2)
To determine contrast agent pharmacokinetics, GdDTPA was injected as a bolus into the tail of the rats at a dose of 0.1 mmol/kg. Changes in the bolus concentration of the contrast agent after injection were monitored by fitting the signal enhancement curves of the in vivo DCE-MRI studies, of regions of interest at the heart ventricle or in one of the great vessels, to a bi-exponential decay. Similar values were previously derived by measurements of blood samples taken after the bolus injection.
The time-dependent changes in signal enhancement were processed pixel-by-pixel using Tofts' physiological model, the contrast agent pharmacokinetics and pre-contrast T1 values (Table 1), and the calibration algorithms herein described.

**Q.** For `O=C([O-])CN(CCN(CC(=O)[O-])CC(=O)O)CCN(CC(=O)[O-])CC(=O)O.[Gd+3]` [Gd-DTPA, Gadolinium-diethylene triamino pentaacetic acid], which “R1, T1 relaxivity” value [1] is on record?
**A.** The value was 4.2 {Furman- s^−1mM^−1.

**Q.** What about the “a1, Amplitude of fast decay” value [2] of the same compound?
**A.** The value was 9.44 kg/L.

**Q.** And the “a2, Amplitude of slow decay” value [2]?
**A.** Its value is 3.99 kg/L.

**Q.** And the “m1, Fast decay time constant” value [2]?
**A.** The value was 0.75 min⁻¹.

**Q.** What about the “m2, Slow decay time constant” value [2] of the same compound?
**A.** Its value is 0.033 min⁻¹.
